In general, Km refers to the concentration of substrate that gives half-maximal velocity. As usually defined, the kcat is the maximal rate divided by the concentration of active sites.

Assay [1] concerns the target T1, Humicola insolens cellobiose oxidase (CBO, 92 kDa, pI 4.0) (Mycothermus thermophilus, UniProt Q9P8H5).
T1 sequence (Q9P8H5 24-785): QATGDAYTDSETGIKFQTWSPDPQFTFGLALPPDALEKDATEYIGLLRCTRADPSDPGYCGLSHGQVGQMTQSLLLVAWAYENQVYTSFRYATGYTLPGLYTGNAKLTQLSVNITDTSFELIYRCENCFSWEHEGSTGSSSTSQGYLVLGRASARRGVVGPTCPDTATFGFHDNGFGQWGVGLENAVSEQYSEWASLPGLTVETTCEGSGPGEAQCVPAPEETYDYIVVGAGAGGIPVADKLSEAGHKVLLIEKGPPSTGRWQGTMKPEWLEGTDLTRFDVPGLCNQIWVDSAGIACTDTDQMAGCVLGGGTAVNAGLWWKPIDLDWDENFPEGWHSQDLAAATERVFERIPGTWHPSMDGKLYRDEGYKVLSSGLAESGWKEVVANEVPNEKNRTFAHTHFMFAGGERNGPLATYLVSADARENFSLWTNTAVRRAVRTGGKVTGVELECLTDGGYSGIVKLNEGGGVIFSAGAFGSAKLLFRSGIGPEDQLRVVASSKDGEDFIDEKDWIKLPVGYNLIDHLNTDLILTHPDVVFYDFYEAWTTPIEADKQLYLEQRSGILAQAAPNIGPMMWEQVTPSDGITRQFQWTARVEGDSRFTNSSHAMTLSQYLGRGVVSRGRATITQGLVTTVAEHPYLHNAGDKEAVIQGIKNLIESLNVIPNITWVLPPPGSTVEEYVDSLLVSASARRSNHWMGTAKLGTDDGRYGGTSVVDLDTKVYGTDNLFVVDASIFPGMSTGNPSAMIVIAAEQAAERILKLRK
The note with it: for Km: read-out: Km (electron donor), pH 7.5; for kcat (electron donor): sugar + 90 μM DCPIP, mol oxidized cellobiose/s/mol enzyme. As for the experimental part: The measurements were performed in 0.1M sodium phosphate buffer at pH 7.5 at 40° C. 450 μl of a mixture of 100 μM of 2,6-Dichlorophenol-indophenol (DCPIP, Merck), 250 μM of cellobiose (Sigma) were mixed with 50 μl enzyme. Units of activity equals μmol cellobiose oxidized (DCPIP reduced) per min.
All measurements were performed in 0.1M sodium phosphate buffer, pH 7.5, at 40° C. […] The reactions were monitored for 400 s as changes in absorbance at the appropirate wavelength (see above). […] The catalytic constants (kcat) were expressed as mol of oxidized cellobiose/s/mol of enzyme. […] The kinetic constants were determined using Lineweaver-Burke plots and were the result of dual determinations.

In assay [2] the test system is Endo (cellulase, first line of the table). Briefly: Coupled cellobiose oxidase/DCPIP assay for cellulases. It is filed as biochemical. The note with it: reduced cellodextrin substrate. The text has this: (§1) The ability of the cellobiose oxidase to oxidize cellodextrins by means of an electron acceptor was utilized in an assay for cellulases. […] With this assay the kinetic constants for reduced cellodextrins of 5 different cellulases have been determined (table 2). […] The enzymes show very different substrate specificity, some of them requiring quite long substrates making it impossible to use the umbelliferyl cellobiosides and lactosides available for steady state kinetic.

The next assay concerns EG A (cellulase). The assay is described as above. The assay is classed as biochemical. The note with it: reduced cellodextrin substrate.
From the text: as §1

The next assay has as its system Endo B (cellulase). The assay is described as above. It is filed as biochemical. Conditions: reduced cellodextrin substrate.
From the text: as §1

The subject of a further assay is EG C (cellulase). Described as above. The assay is classed as biochemical. Conditions: reduced cellodextrin substrate.
From the text: as §1

For a further assay, the target named is T2, CBH II (cellulase) (Humicola insolens, UniProt Q9C1S9).
T2 sequence (Q9C1S9 17-476): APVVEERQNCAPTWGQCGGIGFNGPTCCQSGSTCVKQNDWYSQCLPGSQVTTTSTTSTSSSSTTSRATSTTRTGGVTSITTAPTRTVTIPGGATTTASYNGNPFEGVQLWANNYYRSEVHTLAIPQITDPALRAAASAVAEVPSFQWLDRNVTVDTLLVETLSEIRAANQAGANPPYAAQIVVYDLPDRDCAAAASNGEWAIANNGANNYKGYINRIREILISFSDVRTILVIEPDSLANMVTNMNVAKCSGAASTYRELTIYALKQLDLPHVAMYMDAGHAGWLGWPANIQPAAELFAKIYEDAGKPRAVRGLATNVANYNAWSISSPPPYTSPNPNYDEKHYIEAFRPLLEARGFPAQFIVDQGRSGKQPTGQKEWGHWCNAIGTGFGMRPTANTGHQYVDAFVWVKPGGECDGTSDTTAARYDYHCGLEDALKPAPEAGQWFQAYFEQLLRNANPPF
The description is as above. It is filed as biochemical. The note with it: for Ki: coupled CBO/DCPIP assay, read-out: KL (inhibition constant). From the text:
The ability of the cellobiose oxidase to oxidize cellodextrins by means of an electron acceptor was utilized in an assay for cellulases. […] With this assay the kinetic constants for reduced cellodextrins of 5 different cellulases have been determined (table 2). […] The enzymes show very different substrate specificity, some of them requiring quite long substrates making it impossible to use the umbelliferyl cellobiosides and lactosides available for steady state kinetic. […] The inhibition constants were determined for two cellulases using the developed assay.

A further assay concerns the target Endo A (cellulase). The assay is described as above. Conditions: coupled CBO/DCPIP assay. The assay is classed as biochemical. The text has this: The ability of the cellobiose oxidase to oxidize cellodextrins by means of an electron acceptor was utilized in an assay for cellulases. By using a substrate without a reducing end, such as a reduced cellodextrin, the reducing ends formed by the hydrolysis by the cellulase will be oxidized by the CBO. Simultaneously the coloured electron acceptor, dichlorophenolindophenol (DCPIP), is reduced by cellobiose oxidase to a colourless compound making it possible to follow the reaction spectrophotometrically at 600 nm DCPIP was chosen as electron acceptor because of its high extinction coefficient.
The inhibitors methyl 4-thiocellotrioside, methyl 4-thiocellotetraoside and methyl 4-thiocellopentaoside were synthesized at the laboratory in Grenoble^5. The inhibition constants were determined for two cellulases using the developed assay.

Setting [3] is: 0.1M sodium phosphate buffer, pH 7.5, 40° C.
Where [4] appears, read: read-out: KL (inhibition constant).
Setting [5] is: read-out: KLS (inhibition constant).

Where two headings read alike, the source gives them in different places.

`CC(C)(C)C1=CC(=O)C(=O)C(C(C)(C)C)=C1` [Benzoquinone, 3,5-di-tert-butyl-1,2-benzoquinone]: the “kcat (electron acceptor)” value in assay [1] (electron acceptor + 225 μM cellobiose, 0.1M sodium phosphate buffer, pH 7.5, 40° C.) was 15 s⁻¹.

Regarding `OC[C@H]1O[C@@H](O[C@H]2[C@H](O)[C@@H](O)[C@H](O[C@H]3[C@H](O)[C@@H](O)[C@H](O[C@H]4[C@H](O)[C@@H](O)[C@H](O[C@H]5[C@H](O)[C@@H](O)C(O)O[C@@H]5CO)O[C@@H]4CO)O[C@@H]3CO)O[C@@H]2CO)[C@H](O)[C@@H](O)[C@@H]1O` (stereo partly drawn) [Cellopentaose], the Km in assay [1] was determined as 17 µM. Besides, the “kcat (electron donor)” value in assay [1] (setting [3]) amounted to 8.3 s⁻¹.

Regarding `OC[C@H]1O[C@@H](O[C@H]2[C@H](O)[C@@H](O)[C@H](O[C@H]3[C@H](O)[C@@H](O)[C@H](O[C@H]4[C@H](O)[C@@H](O)C(O)O[C@@H]4CO)O[C@@H]3CO)O[C@@H]2CO)[C@H](O)[C@@H](O)[C@@H]1O` (stereo partly drawn) [Cellotetraose], the “kcat (electron donor)” value in assay [1] (setting [3]) was 8.5 s⁻¹.

Turning to `OC[C@H]1O[C@@H](O[C@H]2[C@H](O)[C@@H](O)[C@H](O[C@H]3[C@H](O)[C@@H](O)C(O)O[C@@H]3CO)O[C@@H]2CO)[C@H](O)[C@@H](O)[C@@H]1O` (stereo partly drawn) [Cellotriose], the “kcat (electron donor)” value in assay [1] (setting [3]) was 8.5 s⁻¹.

In the case of `OC[C@H]1OC(O)[C@H](O)[C@@H](O)[C@@H]1O` (stereo partly drawn) [Glucose], the “kcat (electron donor)” value in assay [1] (setting [3]) worked out at 0 s⁻¹.

Regarding `CC(=O)N[C@H]1[C@H](O[C@H]2[C@H](O)[C@@H](NC(C)=O)C(O)O[C@@H]2CO)O[C@H](CO)[C@@H](O)[C@@H]1O` (stereo partly drawn) [N,N-Diacetylchitobiose], the “kcat (electron donor)” value in assay [1] (setting [3]) worked out at 0 s⁻¹.

`CC(=O)N[C@H]1C(O)O[C@H](CO)[C@@H](O[C@@H]2O[C@H](CO)[C@H](O)[C@H](O)[C@H]2O)[C@@H]1O` (stereo partly drawn) [N-Acetyllactosamine]: the “kcat (electron donor)” value in assay [1] (setting [3]) is 0 s⁻¹.

Regarding `OC[C@@H](O)[C@@H](O[C@@H]1O[C@H](CO)[C@@H](O[C@@H]2O[C@H](CO)[C@@H](O)[C@H](O)[C@H]2O)[C@H](O)[C@H]1O)[C@H](O)[C@@H](O)CO` [Red. DP3], the Km in assay [2] came out at 500 µM. For the same compound, the kcat is 0.24 s⁻¹ in assay [2]; 0 s⁻¹ in the assay with EG A (cellulase); 0 s⁻¹ in the assay on Endo B (cellulase); 0 s⁻¹ in the assay on EG C (cellulase); 0 s⁻¹ at CBH II (cellulase) (reduced cellodextrin substrate).

Regarding `OC[C@@H](O)[C@@H](O[C@@H]1O[C@H](CO)[C@@H](O[C@@H]2O[C@H](CO)[C@@H](O[C@@H]3O[C@H](CO)[C@@H](O)[C@H](O)[C@H]3O)[C@H](O)[C@H]2O)[C@H](O)[C@H]1O)[C@H](O)[C@@H](O)CO` [Red. DP4], the Km in assay [2] was found to be 26 µM; in the assay on Endo B (cellulase), 1500 µM; with EG C (cellulase), 1600 µM. For the same compound, the kcat in assay [2] came out at 29 s⁻¹; in the assay with EG A (cellulase), 0 s⁻¹; in the assay on Endo B (cellulase), 0.84 s⁻¹; with EG C (cellulase) it was 0.43 s⁻¹.

In the case of `OC[C@@H](O)[C@@H](O[C@@H]1O[C@H](CO)[C@@H](O[C@@H]2O[C@H](CO)[C@@H](O[C@@H]3O[C@H](CO)[C@@H](O[C@@H]4O[C@H](CO)[C@@H](O)[C@H](O)[C@H]4O)[C@H](O)[C@H]3O)[C@H](O)[C@H]2O)[C@H](O)[C@H]1O)[C@H](O)[C@@H](O)CO` [Red. DP5], the Km in assay [2] is 14 µM; in the assay with EG A (cellulase) it was 460 µM; in the assay on Endo B (cellulase), 150 µM; in the assay on EG C (cellulase), 68 µM. The kcat in assay [2] amounted to 40 s⁻¹; in the assay with EG A (cellulase), 0.00 s⁻¹; in the assay on Endo B (cellulase) it was 0.86 s⁻¹; with EG C (cellulase) it was 13 s⁻¹.

Take `OC[C@@H](O)[C@@H](O[C@@H]1O[C@H](CO)[C@@H](O[C@@H]2O[C@H](CO)[C@@H](O[C@@H]3O[C@H](CO)[C@@H](O[C@@H]4O[C@H](CO)[C@@H](O[C@@H]5O[C@H](CO)[C@@H](O)[C@H](O)[C@H]5O)[C@H](O)[C@H]4O)[C@H](O)[C@H]3O)[C@H](O)[C@H]2O)[C@H](O)[C@H]1O)[C@H](O)[C@@H](O)CO` [Red. DP6]: the Km in the assay on EG A (cellulase) was 54 µM; in the assay on Endo B (cellulase) it was 52 µM; in the assay on EG C (cellulase), 71 µM. Further, the kcat with EG A (cellulase) was found to be 0.15 s⁻¹; in the assay with Endo B (cellulase) it was 14 s⁻¹; with EG C (cellulase), 11 s⁻¹.

For the compound `OC1OC[C@@H](O[C@@H]2OC[C@@H](O)[C@H](O)[C@H]2O)[C@H](O)[C@H]1O` (stereo partly drawn) [Xylobiose], in assay [1], the Km stood at 7100 µM. In addition, the “kcat (electron donor)” value in assay [1] (setting [3]) amounted to 2.15 s⁻¹.

Regarding methyl 4-thiocellopentaoside [S-DP5], the Ki amounted to 35 µM at Endo A (cellulase) (setting [4]) and 15 µM at CBH II (cellulase).

Take methyl 4-thiocellotetraoside [S-DP4]: the Ki turned out to be 75 µM at Endo A (cellulase) (setting [4]), 1000 µM on Endo A (cellulase) (setting [5]) and 270 µM on CBH II (cellulase).

With methyl 4-thiocellotrioside [S-DP3], the Ki is 300 µM on Endo A (cellulase) (setting [4]), 2000 µM at Endo A (cellulase) (setting [5]) and 1400 µM on CBH II (cellulase).

For the origin of these results see patent US5866392A, “Cellobiose oxidase, and enzymatic agent and a process for treating paper pulp” (priority 1992, dated 1999).
